According to the NIST ThermoML archive (doi:10.1021/acs.jced.5b00346):

Experiment: molar heat capacity at constant pressure
Settings: Liquid, Large sample (1 g) DSC

CCF [fluoroethane]
molar heat capacity at constant pressure [J/K/mol]
Settings	2160 kPa	2580 kPa	3100 kPa	3480 kPa	4030 kPa	4460 kPa	4990 kPa	5490 kPa
305.15 K	105.01	104.34	103.9	104.19	104.67	104.39	103.81	102.94
310.15 K	107.51	106.21	106.31	106.26	105.59	105.06	105.25	104.39
315.15 K	109.82	108.66	109	108.23	107.36	106.26	106.55	105.83
320.15 K	112.17	111.69	111.64	110.44	109.53	108.18	107.94	107.46
325.15 K	–	114.86	114.09	112.89	111.88	110.87	109.67	109.34
330.15 K	–	117.79	116.59	115.92	114.57	114	112.07	111.5
335.15 K	–	–	120.68	119.81	117.99	117.51	115.25	114.14
340.15 K	–	–	129.47	125.24	122.65	121.4	119.28	117.41
345.15 K	–	–	–	132.6	128.7	126.06	124.23	121.69
350.15 K	–	–	–	–	136.59	132.45	130.05	127.26
355.15 K	–	–	–	–	148.79	142.5	136.68	134.37
360.15 K	–	–	–	–	–	159.27	147.49	142.78
